Residues, ends and D or L forms follow the SMILES beside them. *: point of attachment. Cbz = O=C(OCc1ccccc1)*; CH2F = FC*
Columns and labels:
JM-1 cells = test: Tamoxifen-inducible ICN1 (ICN1-ER-BD) in JM-1 subclones: PI, AnnexinV, RT-PCR; format: cell-based, human; details: JM-1 subclones with tamoxifen-inducible ICN1
From the text: To further characterize this effect, a retroviral vector containing a tamoxifen-inducible-ICN1 vector co-expressing GFP (ICN1+GFP) was stably transduced into three of the JM-1 human B-ALL leukemia/lymphoma′cell lines. To accomplish this, the estrogen receptor hormone-binding domain (ER-BD) was fused via a linker to ICN1. This fusion product was expressed on the MigR1 (MSCV-based) retroviral vector, which co-expresses GFP. JM-1 cells were transduced with this construct and subclones were selected for high expression. The GFP positive populations were sub cloned and individual clones expressing various levels of ICN1+GFP were analyzed after exposure to tamoxifen (FIG. 18A). Subclone JM-1.2 was exposed to tamoxifen and RT-PCR was performed (FIG. 18B). Growth arrest was shown by PI staining, apoptosis was measured by AnnexinV staining, and increased levels of Hairy expression were measured by RT-PCR. The percentage of non-GO/G1 cells was normalized to pre-treatment levels by duplicate experiments. The results of three experiments averaged ± standard deviation compared with EtOH control, and the average of duplicate experiments was relative to GAPDH expression and normalized to day 0 (pre-treatment) levels.
This effect was similar to the results seen with non-induced constructs.

V9 cells = test: AnnexinV staining of ICN1-transduced V9 cells cultured with caspase inhibitor; format: cell-based, murine
Experimental: Apoptosis is frequently mediated by caspases, a family of cysteine proteases, whose activation leads to cell death. To further characterize the ICN1-induced cell death, ICN1-transduced V9 cells were cultured with either the general caspase inhibitor, zVAD (50 μM in DMSO), or DMSO alone (zVAD vehicle only), and analyzed 22 and 44 hours later (FIG. 3B). When cultured in control media (no zVAD), the great majority of GFP+ cells became AnnexinV positive by 22 hours post transduction, and few GFP positive cells remained at 44 hours (FIG. 3B, middle panel).
This may due to the incomplete inhibition of zVAD on the targeted caspases or, alternatively, caspase-independent pathways also contribute the B cell death.

[1] = biological target: Notch receptors on human B-ALL cell line JM-1; test: cell-based or functional assay

CC/C(=C(\c1ccccc1)c1ccc(OCCN(C)C)cc1)c1ccccc1 [tamoxifen]
cell cycle and apoptosis after induction (JM-1 cells): cell cycle (growth) arrest and apoptosis

CC(NC(=O)C(NC(=O)OCc1ccccc1)C(C)C)C(=O)NC(CC(=O)O)C(=O)CF (stereo not drawn) [zVAD] (Cbz-Val-Ala-Asp-CH2F; configuration not given here)
ICN1-transduced cells becoming AnnexinV positive (V9 cells; 50 μM zVAD, 22 hours): only a few | protection of V9 cells from apoptosis (V9 cells; zVAD, up to 44 hours post-transduction): only partially protected

human Jagged1 (from UniProt P78504 34-1218) (ligand)
Hairy expression in B-ALL cells by RT-PCR at 24 hours of co-culture [1]: 5 fold

human Jagged2 (from UniProt Q9Y219 24-1238) (ligand)
Hairy expression in B-ALL cells by RT-PCR at 24 hours of co-culture [1]: 5 fold

From US20030181380A1, “Modulating lymphoid commitment and survival” (priority 2002, published 2003)
